Measured values as given in US20240245793A1, “PSD-95 INHIBITORS AND USES THEREOF” (priority 2021, published 2024).
Read-outs that look alike come from different tables or passages of the source.

Test system: HeLa cells stably expressing HaloGFP
Assay: Chloroalkane penetration assay (CAPA), membrane permeability and cellular uptake
Type: cell-based
Source text: Since PSD-95 is located intracellularly, it is essential for any drug targeting PSD-95 to efficiently cross the cell membrane. To assess the cellular permeability and delivery to the cytosol of the compounds as defined herein, the cellular chloroalkane penetration assay (CAPA) may be used (Peraro et al. 2018). This assay takes advantage of a modified haloalkane dehalogenase designed to covalently bind chloroalkane (CA) molecules. A HeLa cell line expressing a fusion protein comprising a HaloTag, a green fluorescent protein (GFP) and a mitochondria-targeting peptide is used to report cytosolic delivery. The general format of the CAPA is a pulse-chase assay (Deprey & Kritzer, 2020). Cells expressing the HaloTag enzyme are incubated with CA-tagged peptides. When these CA-peptides penetrate the cell membrane and reach the cytosol, they will bind to and react with the HaloTag (pulse step). Following a washing step, the cells are incubated with a CA-tagged dye that quantitatively penetrates the cell membrane and reacts with remaining unreacted HaloTag sites (chase step). Flow cytometry is used to measure the fluorescence intensity of the cells and the measured fluorescence is inversely proportional to the amount of CA-peptides that reach the penetrated the cells and can thus be used to assess cytosolic delivery. The obtained data is commonly expressed as CP50 values, the concentration at which 50% cell penetration is observed. The CP50 value of a compound may be measured as described in example 4.
The membrane permeability of compounds 10 to 75 was determined in HeLa cells stably expressing HaloGFP exclusively located in the cytosol. Cells were seeded at a density of 40.000 cells/well one day prior to the experiment. After the growth media was aspirated and replaced by 100 μL of Opti-MEM, 25 μL of a prepared serial dilution of the ligand in Opti-MEM was added to the cells (constant DMSO concentration), and the plate was incubated for 4 h at 37° C. and 5% CO2. The contents of the wells were aspirated, and cells were washed with fresh Opti-MEM for 15 min. After aspiration of the wash, the cells were incubated with TAMRA-CA (5 μM) for 15 min. After aspiration of the chase solution, cells were washed with Opti-MEM for 30 min. Following removal of the wash, cells were trypsinized, resuspended in PBS (2% FBS), and analyzed using a benchtop flow cytometer. Using no ligand and no TAMRA-CA control well, the obtained fluorescence intensity data was normalized and plotted as dose-response curves. Reported CP50 values represent half-maximum red fluorescence which behaves inverse to cell penetration of the ligand.

Row | Structure (SMILES) | CP50 | CP50 (CA-tagged NPEG4-(IETDV)2 with various CPP-tags, 4 h at 37° C., mean ± SEM (Table 11, FIG. 8))
1 | CC(C)[C@H](NC(=O)[C@H](CCCNC(=N)N)NC(=O)[C@@H](NC(=O)[C@H](CCC(=O)O)NC(=O)[C@H](CCCCN)NC(=O)CCOCCOCCN(CCOCCOCCC(=O)N[C@@H](CCCCN)C(=O)N[C@@H](CCC(=O)O)C(=O)N[C@H](C(=O)N[C@@H](CCCNC(=N)N)C(=O)N[C@H](C(=O)O)C(C)C)[C@@H](C)O)C(=O)[C@H](CCCNC(=N)N)NC(=O)[C@H](CCCNC(=N)N)NC(=O)[C@H](CCCNC(=N)N)NC(=O)[C@H](CCCNC(=N)N)NC(=O)[C@H](CCCNC(=N)N)NC(=O)[C@H](CCCNC(=N)N)NC(=O)[C@H](CCCNC(=N)N)NC(=O)[C@H](CCCNC(=N)N)NC(=O)[C@H](CCCNC(=N)N)NC(=O)CCC(=O)NCCOCCOCCCCCCCl)[C@@H](C)O)C(=O)O [Compound 30] | 0.68 ± 0.05 µM | 
2 | CC[C@H](C)[C@H](NC(=O)CCOCCOCCN(CCOCCOCCC(=O)N[C@H](C(=O)N[C@@H](CO)C(=O)N[C@H](C(=O)N[C@@H](CC(=O)O)C(=O)N[C@H](C(=O)O)C(C)C)[C@@H](C)O)[C@@H](C)CC)C(=O)[C@H](CCCNC(=N)N)NC(=O)[C@H](CCCNC(=N)N)NC(=O)[C@H](CCCNC(=N)N)NC(=O)[C@H](CCCNC(=N)N)NC(=O)[C@H](CCCNC(=N)N)NC(=O)[C@H](CCCNC(=N)N)NC(=O)[C@H](CCCNC(=N)N)NC(=O)[C@H](CCCNC(=N)N)NC(=O)[C@H](CCCNC(=N)N)NC(=O)CCC(=O)NCCOCCOCCCCCCCl)C(=O)N[C@@H](CO)C(=O)N[C@H](C(=O)N[C@@H](CC(=O)O)C(=O)N[C@H](C(=O)O)C(C)C)[C@@H](C)O [Compound 32] | 1.05 ± 0.15 µM | 
3 | CC(C)[C@H](NC(=O)[C@@H](NC(=O)[C@@H](NC(=O)[C@H](CCC(=O)O)NC(=O)[C@@H](NC(=O)CCOCCOCCN(CCOCCOCCC(=O)N[C@H](C(=O)N[C@@H](CCC(=O)O)C(=O)N[C@H](C(=O)N[C@H](C(=O)N[C@H](C(=O)O)C(C)C)C(C)C)[C@@H](C)O)C(C)C)C(=O)[C@H](CCCNC(=N)N)NC(=O)[C@H](CCCNC(=N)N)NC(=O)[C@H](CCCNC(=N)N)NC(=O)[C@H](CCCNC(=N)N)NC(=O)[C@H](CCCNC(=N)N)NC(=O)[C@H](CCCNC(=N)N)NC(=O)[C@H](CCCNC(=N)N)NC(=O)[C@H](CCCNC(=N)N)NC(=O)[C@H](CCCNC(=N)N)NC(=O)CCC(=O)NCCOCCOCCCCCCCl)C(C)C)[C@@H](C)O)C(C)C)C(=O)O [Compound 34] | 0.84 ± 0.15 µM | 
4 | CC[C@H](C)[C@H](NC(=O)CCOCCOCCN(CCOCCOCCC(=O)N[C@H](C(=O)N[C@@H](CCC(=O)O)C(=O)N[C@H](C(=O)N[C@@H](CC(=O)O)C(=O)N[C@H](C(=O)O)C(C)C)[C@@H](C)O)[C@@H](C)CC)C(=O)[C@@H](CCCNC(=N)N)NC(=O)[C@@H](CCCNC(=N)N)NC(=O)[C@@H](CCCNC(=N)N)NC(=O)[C@@H](CCC(N)=O)NC(=O)[C@@H](CCCNC(=N)N)NC(=O)[C@@H](CCCNC(=N)N)NC(=O)[C@@H](CCCCN)NC(=O)[C@@H](CCCCN)NC(=O)[C@@H](CCCNC(=N)N)NC(=O)CNC(=O)[C@@H](Cc1ccc(O)cc1)NC(=O)CCC(=O)NCCOCCOCCCCCCCl)C(=O)N[C@@H](CCC(=O)O)C(=O)N[C@H](C(=O)N[C@@H](CC(=O)O)C(=O)N[C@H](C(=O)O)C(C)C)[C@@H](C)O [Compound 39] |  | 10.7 ± 0.7 µM
5 | CC[C@H](C)[C@H](NC(=O)CCOCCOCCN(CCOCCOCCC(=O)N[C@H](C(=O)N[C@@H](CCC(=O)O)C(=O)N[C@H](C(=O)N[C@@H](CC(=O)O)C(=O)N[C@H](C(=O)O)C(C)C)[C@@H](C)O)[C@@H](C)CC)C(=O)[C@H](CO)NC(=O)[C@H](CCC(=O)O)NC(=O)[C@H](CCCNC(=N)N)NC(=O)[C@H](CCCNC(=N)N)NC(=O)[C@H](CCCNC(=N)N)NC(=O)[C@H](CCCCN)NC(=O)[C@H](CCCCN)NC(=O)[C@H](CCCNC(=N)N)NC(=O)[C@H](CO)NC(=O)[C@H](CCC(=O)O)NC(=O)[C@H](CCCNC(=N)N)NC(=O)[C@H](CCCNC(=N)N)NC(=O)[C@H](CCCNC(=N)N)NC(=O)[C@H](CCCCN)NC(=O)[C@H](CCCCN)NC(=O)[C@H](CCCNC(=N)N)NC(=O)CCC(=O)NCCOCCOCCCCCCCl)C(=O)N[C@@H](CCC(=O)O)C(=O)N[C@H](C(=O)N[C@@H](CC(=O)O)C(=O)N[C@H](C(=O)O)C(C)C)[C@@H](C)O [Compound 51] | 3.2 ± 0.5 µM | 
6 | CC[C@H](C)[C@H](NC(=O)CCOCCOCCN(CCOCCOCCC(=O)N[C@H](C(=O)N[C@@H](CCC(=O)O)C(=O)N[C@H](C(=O)N[C@@H](CC(=O)O)C(=O)N[C@H](C(=O)O)C(C)C)[C@@H](C)O)[C@@H](C)CC)C(=O)[C@H](CCCCN)NC(=O)[C@H](CO)NC(=O)[C@H](Cc1c[nH]cn1)NC(=O)[C@H](C)NC(=O)[C@H](Cc1c[nH]cn1)NC(=O)[C@H](C)NC(=O)[C@H](CCC(N)=O)NC(=O)[C@H](CCCCN)NC(=O)[C@H](CCCNC(=N)N)NC(=O)[C@@H](NC(=O)[C@H](CCCNC(=N)N)NC(=O)[C@H](CCCNC(=N)N)NC(=O)[C@H](CCCNC(=N)N)NC(=O)[C@H](CC(C)C)NC(=O)[C@@H](NC(=O)[C@@H](NC(=O)[C@H](CC(C)C)NC(=O)[C@H](CC(C)C)NC(=O)CCC(=O)NCCOCCOCCCCCCCl)[C@@H](C)CC)[C@@H](C)CC)[C@@H](C)CC)C(=O)N[C@@H](CCC(=O)O)C(=O)N[C@H](C(=O)N[C@@H](CC(=O)O)C(=O)N[C@H](C(=O)O)C(C)C)[C@@H](C)O [Compound 53] | 1.7 ± 0.1 µM | 

Continued, in another order:

Row | CP50 | Structure (SMILES) | CP50 (CA-tagged NPEG4-(IETDV)2 with various CPP-tags, 4 h at 37° C., mean ± SEM (Table 11, FIG. 8))
7 | 180 ± 8.2 µM | CC[C@H](C)[C@H](NC(=O)CCOCCOCCN(CCOCCOCCC(=O)N[C@H](C(=O)N[C@@H](CCC(=O)O)C(=O)N[C@H](C(=O)N[C@@H](CC(=O)O)C(=O)N[C@H](C(=O)O)C(C)C)[C@@H](C)O)[C@@H](C)CC)C(=O)[C@@H](CCCNC(=N)N)NC(=O)[C@H](CCCNC(=N)N)NC(=O)[C@@H](CCCCN)NC(=O)[C@H](CCCCN)NC(=O)[C@@H](CCCNC(=N)N)NC(=O)CNC(=O)[C@@H](CCCNC(=N)N)NC(=O)[C@H](CCCNC(=N)N)NC(=O)[C@@H](CCCNC(=N)N)NC(=O)CCC(=O)NCCOCCOCCCCCCCl)C(=O)N[C@@H](CCC(=O)O)C(=O)N[C@H](C(=O)N[C@@H](CC(=O)O)C(=O)N[C@H](C(=O)O)C(C)C)[C@@H](C)O [Compound 41] | 
8 | 221 ± 36 µM | CC[C@H](C)[C@H](NC(=O)CCOCCOCCN(CCOCCOCCC(=O)N[C@H](C(=O)N[C@@H](CCC(=O)O)C(=O)N[C@H](C(=O)N[C@@H](CC(=O)O)C(=O)N[C@H](C(=O)O)C(C)C)[C@@H](C)O)[C@@H](C)CC)C(=O)[C@@H](CCCNC(=N)N)NC(=O)[C@@H](CCCCN)NC(=O)[C@@H](CCCCN)NC(=O)[C@@H](CCCNC(=N)N)NC(=O)[C@@H](CCCNC(=N)N)NC(=O)[C@@H](CCC(N)=O)NC(=O)[C@@H](CCCNC(=N)N)NC(=O)[C@@H](CCCNC(=N)N)NC(=O)[C@@H](CCCNC(=N)N)NC(=O)CCC(=O)NCCOCCOCCCCCCCl)C(=O)N[C@@H](CCC(=O)O)C(=O)N[C@H](C(=O)N[C@@H](CC(=O)O)C(=O)N[C@H](C(=O)O)C(C)C)[C@@H](C)O [Compound 43] | 
9 | 161 ± 25 µM | CC[C@H](C)[C@H](NC(=O)CCOCCOCCN(CCOCCOCCC(=O)N[C@H](C(=O)N[C@@H](CCC(=O)O)C(=O)N[C@H](C(=O)N[C@@H](CC(=O)O)C(=O)N[C@H](C(=O)O)C(C)C)[C@@H](C)O)[C@@H](C)CC)C(=O)[C@@H](CCCNC(=N)N)NC(=O)[C@@H](CCCNC(=N)N)NC(=O)[C@@H](CCCNC(=N)N)NC(=O)[C@@H](CCCNC(=N)N)NC(=O)[C@@H](CCCNC(=N)N)NC(=O)[C@@H](CCCNC(=N)N)NC(=O)[C@@H](CCCNC(=N)N)NC(=O)[C@@H](CCCNC(=N)N)NC(=O)[C@@H](CCCNC(=N)N)NC(=O)CCC(=O)NCCOCCOCCCCCCCl)C(=O)N[C@@H](CCC(=O)O)C(=O)N[C@H](C(=O)N[C@@H](CC(=O)O)C(=O)N[C@H](C(=O)O)C(C)C)[C@@H](C)O [Compound 45] | 
